Assay results: patent US6551772B1, “Model for viral infection and immune response” (AntiCancer, Inc., priority 1996, dated 2003)

Tested on: human tonsil histocultures
Assay type: cell-based
Conditions: for donors whose tissue responded by producing antigen-specific antibodies: antigen added to medium for 2 days, responding donors out of donors tested; for dose dependence of specific IgG response: antigen in the range of 10-100 ng/ml; for induction of antibody against the other antigen and effect on total IgG production: challenge by either TT or DT

Row | Substance | donors whose tissue responded by producing antigen-specific antibodies | dose dependence of specific IgG response | induction of antibody against the other antigen and effect on total IgG production | absolute amount of anti-TT IgG in medium (varied from tissue to tissue)
1 | diphtheria toxin [DT] | 17 of 24 | dose-dependent | did not induce the production of antibody against the other antigen nor did it increase total IgG production | 
2 | tetanus toxoid | 42 out of 55 | dose-dependent | did not induce the production of antibody against the other antigen nor did it increase total IgG production | hundreds to several thousands
